# Experimental data: US9452155B2, “Injectable antibiotic formulations and their methods of use” (BAYER NEW ZEALAND LTD, priority 2012, dated 2016)
# How the values were obtained:
# [1] = type: physicochemical
# Excerpt: Thus the long term stability of PNT with triacetin (or other oily vehicles) is highly unexpected. […] After one month in accelerated stability the components of the composition appeared to degrade rapidly with a resulting colour change from an off-white to a dark yellow with dark brown sludge forming. The degradation components appeared to include a gas, resulting in the container swelling from the resultant pressure. Accordingly, the formulations described in CN 1517090 are not known to be storage stable.
# [2] = cited from earlier work
# [3] = 20° C.; cited from earlier work
smiles,measurement,setting,value
CC1(C)S[C@@H]2[C@H](NC(=O)Cc3ccccc3)C(=O)N2[C@H]1C(=O)O.CCN(CC)CCOC(=O)c1ccc(N)cc1 [procaine penicillin],chemical stability on storage in oily vehicles,[1],chemically unstable
same,chemical stability when substituted for penethamate in the preferred formulation,[1],chemically unstable
CC1(C)S[C@@H]2[C@H](NC(=O)Cc3ccccc3)C(=O)N2[C@H]1C(=O)O [benzylpenicillin],chemical stability on storage in oily vehicles,[1],chemically unstable
CCN(CC)CCOC(=O)[C@@H]1N2C(=O)[C@@H](NC(=O)Cc3ccccc3)[C@H]2SC1(C)C.I [penethamate hydroiodide],time to peak serum levels (measured as dissociated penicillin G),[2]; after injection (Friton 2003),3.76 h
same,share of the active drug present in its hydrolysed form (benzylpenicillin) at equilibrium,"[2]; blood pH (7.2), after intramuscular administration",91.8%
CC(=O)OCC(COC(C)=O)OC(C)=O [Triacetin],viscosity,[3],approximately 23 mPas
